Reference: publication PMC4223075, “A Conserved Peptide Pattern from a Widespread Microbial Virulence Factor Triggers Pattern-Induced Immunity in Arabidopsis” (PLoS Pathogens, 2014)
No end group written: not given here.

Each sequence was assayed on Arabidopsis leaves (assay: Ethylene formation in Arabidopsis leaves / leaf discs). Settings: not given.
Assay type: cell-based, Arabidopsis thaliana
Protocol: For MAPK activity assays, infiltrated plant material was harvested after 15 minutes and frozen in liquid nitrogen before used for protein extraction in 20 mM Tris-HCl pH 7.5, 150 mM NaCl, 1 mM EDTA, 1% Triton X-100, 0,1% SDS, 5 mM DTT, Complete Protease Inhibitor Mini, EDTA-free (Roche, Mannheim), PhosStop Phosphatase Inhibitor Cocktail (Roche, Mannheim). After pelleting the cell debris (10 min, 16000 g, 4°C), the supernatant (30 µg protein) was separated on a 10% SDS-PAGE and transferred to a nitrocellulose membrane and activated MAPK6, 3 and 4 were detected by western blotting using the anti phospho p44/42-MAPK antibody from rabbit (Cell Signaling Technology, The Netherlands). For ROS burst measurements two leaf pieces, floated on ddH2O overnight, were placed in one well of a 96-well plate, containing 100 µl of a 20 µM L-012 and 0.5 µg ml^−1 peroxidase solution. Background was measured shortly in a 96-well Luminometer, (Mithras LB 940, Berthold Technologies) before elicitation with a peptide solution or control treatment respectively. The detection of ethylene was performed as described. Leaf pieces were incubated in 20 mM MES buffer, pH 5.7. To visualize callose apposition, leaves were treated as described and harvested 24 hours after infiltration of a peptide solution. Quantification of callose was performed by counting selected pixels and calculated in % relative to the respective image section of the leaf surface. Pictures were analyzed using Photoshop CS6 Magic tool, hereby removing background and leaf-veins within a certain color range. (Use: white, Mode: normal, Opacity: 100%). Medium alkalinization in suspension-cultured Arabidopsis cells and detection of GUS enzyme activity in PR1::GUS transgenic Arabidopsis plants were performed as described previously, [43]. Surface-sterilized Arabidopsis Col-0 seeds were grown in ½ MS liquid medium supplemented with 1 µM of nlp20 (PpNLP) peptide or its orthologs respectively, and flg22 or H2O serving as controls. Root length of two weeks-old seedlings was determined upon transfer onto agar plates.
For YSWYFPKDSPVTGLGHR [peptide 12], the “elicitor activity (ethylene production in Arabidopsis leaf disks), in words” value was “inactive”.

Same assay, conditions: synthetic peptides; Arabidopsis leaves; at least six different peptide concentrations; means ± SD of three replicates
In the case of AAMYSWYFPKDSPVTGLGHRHDWE [compound 16], the EC50 is reported as 1570 ± 252 nM. AIAYSWYFPKDSPVTGLGHRHDWE [compound 17] showed an EC50 of 42 ± 9 nM. AIMASWYFPKDSPVTGLGHRHDWE [compound 18] was tested, and the EC50 was 1500 ± 436 nM. Sequence AIMYAWYFPKDSPVTGLGHRHDWE [compound 19] has an EC50 of 18 ± 10 nM. Work on AIMYSWAFPKDSPVTGLGHRHDWE [compound 21] yielded an EC50 of 2630 ± 208 nM. For AIMYSWYAPKDSPVTGLGHRHDWE [compound 22], the EC50 was 5.4 ± 3 nM. Sequence AIMYSWYFAKDSPVTGLGHRHDWE [compound 23] has an EC50 of 307 ± 153 nM. Sequence AIMYSWYFPADSPVTGLGHRHDWE [compound 24] has an EC50 of 89 ± 31 nM. Work on AIMYSWYFPKASPVTGLGHRHDWE [compound 25] yielded an EC50 of 97 ± 36 nM. AIMYSWYFPKDAPVTGLGHRHDWE [compound 26] was tested, and the EC50 was 57 ± 28 nM. AIMYSWYFPKDSAVTGLGHRHDWE [compound 27] showed an EC50 of 76 ± 45 nM. AIMYSWYFPKDSPATGLGHRHDWE [compound 28] gave an EC50 of 30 ± 11 nM. Work on AIMYSWYFPKDSPVAGLGHRHDWE [compound 29] yielded an EC50 of 25 ± 15 nM. For AIMYSWYFPKDSPVTALGHRHDWE [compound 30], the EC50 was 23 ± 7.6 nM. AIMYSWYFPKDSPVTGAGHRHDWE [compound 31] gave an EC50 of 24 ± 8 nM. For AIMYSWYFPKDSPVTGLAHRHDWE [compound 32], the EC50 was 220 ± 78 nM. Sequence AIMYSWYFPKDSPVTGLGARHDWE [compound 33] has an EC50 of 48 ± 34 nM. AIMYSWYFPKDSPVTGLGHAHDWE [compound 34] gave an EC50 of 283 ± 40 nM. AIMYSWYFPKDSPVTGLGHRADWE [compound 35] showed an EC50 of 7.7 ± 1.7 nM. Sequence AIMYSWYFPKDSPVTGLGHRHAWE [compound 36] has an EC50 of 6.2 ± 5.6 nM. Work on AIMYSWYFPKDSPVTGLGHRHDAE [compound 37] yielded an EC50 of 7.3 ± 1.8 nM. AIMYSWYFPKDSPVTGLGHRHDWA [compound 38] was tested, and the EC50 was 7.3 ± 1.7 nM. IMYSWYFPKDSPVTGLGHR [compound 10] gave an EC50 of 133 ± 10 nM. Sequence KDSPVTGLGHRHDWE [compound 5] has an EC50 greater than 100000 nM. With MYSWYFPKDSPVTGLGHR [compound 11] the EC50 was 1550 ± 328 nM. For RVATYNGVYAIMYSWYFPKD [compound 7], the EC50 was 84 ± 11 nM. Work on SWYFPKDSPVTGLGH [peptide 4] yielded an EC50 greater than 100000 nM. SWYFPKDSPVTGLGHR [compound 14] showed an EC50 greater than 100000 nM. In the case of WIMYSWYFPKDSPVTGLGHRHDWE [compound 15], the EC50 is reported as 55 ± 24 nM. In the case of YAIMYSWYFPKDSPV [compound 3], the EC50 is reported as 217 ± 65 nM. With YSWYFPKDSPVTGLGHR [peptide 12] the EC50 was greater than 50000 nM.
